# Source: patent EP1002537A1, “Use of melarsoprol for the manufacture of a medicament for treating B-cell lymphoproliferative diseases, such as multiple myeloma” (ASSISTANCE PUBLIQUE, HOPITAUX DE PARIS, priority 1998, dated 2000)
# pIC50: −log10 of the molar value.
# What was measured:
# [1] = test system: plasma-cell enriched preparations of myeloma patients; experiment: Growth (3H TdR uptake) of fresh myeloma cells; format: cell-based; settings: Homo sapiens; three plasma-cell preparations; read-out: IC50 (inhibition of cell growth)
# Excerpt: (§1) Eleven patients with multiple myeloma (MM) or plasma cell leukemia (PCL) were studied after informed consent. Mononuclear cells were separated by Ficoll-Hypaque centrifugation from peripheral blood of 4 patients with PCL (including 2 with a primary PCL), from bone marrow (BM) of 6 patients with MM (including 4 at diagnosis) and from the pleural effusion of a newly diagnosed myeloma patient. Plasma cell-enriched preparations were obtained by centrifugation of mononuclear cells on a Percoll gradient, as previously described (Iwato K, et al, Blood 72:562, 1988). Plasma cell percentages were determined after intracytoplasmic staining using fluorescein-conjugated antibodies to human immunoglobulin (Ig) heavy and light chains (from Nordic, Tilburg, The Netherlands).Short-term cultures of blood and BM mononuclear cells and of plasma cell-enriched preparations were performed in RPMI 1640, in similar conditions as cell lines.
# (§2) Cells were incubates with or without 10^-5 to 10^-8 mol/L melarsoprol up to 96 hours, without any adjustment after culture initiation. Cell number and viability were determined by trypan blue exclusion. Morphologic analysis was performed using Wright-Giema and DAPI (4'-6-diamidino-2-phenylindole) staining on cytocentrifuge preparations. […] Cells were harvested onto glass filter and ^3H-TdR incorporation was counted on a liquid scintillation counter. […]
# [2] = SCID mice transplanted with human myeloma cells: toxicity and arsenic amounts; format: in vivo; settings: any studied organ, especially the liver
# Procedure: (§3) SCID mice were irradiated before the intra-peritoneal (IP) injection of 3 to 5*10^6 plasma cells purified from peripheral blood of patients with plasma cell leukemia. Engrafment was assessed by bi-monthly measurement of the human monoclonal immunoglobulin (HuMIg) concentration in mouse serum, using an ELISA.
# Arsenic amounts in mouse serum and tissues were in the expected 〈〈 pharmacological 〉〉 range.
# [3] = test system: plasma cells (CD38^higt +); experiment: FACS analysis of patients' bone marrow mononuclear cells (annexin V with CD38 or CD15); format: cell-based, human
# Excerpt: as §1
# (§4) Direction of phosphatidylserine on the outer leaflet of apoptotic cells was performed using Annexin-V-FLUOS (Boehringer Mannheim, Germany) and propidium iodide (PI) according to the manufacturer's recommendations. Expression of cell surface CD38, CD138 (BB-4° and CD15 antigens was studied using corresponding fluorescein isothiocyanate (FITC) or phycierythrin conjugated antibodies that were purchased from Diaclone (Besançon, France) and Becton Dickinson (San Jose, Ca.). Flow cytometry was performed with a FACSean apparatus (Beckton Dickinson).
# (§5) To comparatively assess the effects of melarsoprol on myeloid and plasma cells, bone marrow mononuclear cells obtained from patients with newly diagnosed multiple myeloma were cultured for 5 days in the presence of 10^-6 mol/L melarsoprol. […] Indeed, in a representative study a bone marrow sample initiality containing 30% of plasma cells (CD38^higt +), 12% of the latter expressed annexin V after 2 days of culture with 10^-6 mol/L melarsoprol, whereas less than 1% of myeloid cells (CD38^low, CD15 +) were positive for the apoptosis marker. At day 5, the plasma cell number had much more decreased than the myeloid cell number and viable cells (propidium iodide negative) contained 7.8 % of CD38^higt positive cells, as compared to 22.5 % in control culture, performed with medium alone. CD15+ myelo-monocytic cell percentages were similar in arsenic-exposed cultures and in controls, with a decrease in the CD15^low+ fraction.
# [4] = test system: myeloid cells (CD38^low, CD15 +); experiment: as above; format: cell-based, human
# Excerpt: as §1, §4, §5
# [5] = test system: OPM2; experiment: Cell survival by trypan blue exclusion; format: cell-based, human; settings: OPM2, after 48 hours, 10-6 mol/L melarsoprol
# Procedure: (§6) The human myeloma cell lines were purchased from DMS (Braunschweig, Germany) (NCI H929 and LP1) and from American Type Culture Collections (Rockville, MD) (OPM2 and U266). NCI, OPM2, U266 (and all studied non plasmacytic cell lines) were cultured in RPMI 1640 supplemented with 1% penicillin/streptomycin, 1 mmol/L L-glutamine and 10% heat-inactivated fetal calf serum at 37°C, 5% CO2 in air. LP1 cells were cultured in similar conditions, in Iscove's medium.
# (§7) Cells were incubates with or without 10^-5 to 10^-8 mol/L melarsoprol up to 96 hours, without any adjustment after culture initiation. Cell number and viability were determined by trypan blue exclusion. Morphologic analysis was performed using Wright-Giema and DAPI (4'-6-diamidino-2-phenylindole) staining on cytocentrifuge preparations. For proliferation assays, aliquots of 2x10^4 cells in triplicate were incubated in 96-well plates and 3H-thymidine (3H-TdR) (1 µCi) was added for the final 8 hours of the culture period. Cells were harvested onto glass filter and ^3H-TdR incorporation was counted on a liquid scintillation counter.
# (§8) Treatment of plasma cell lines with melarsoprol led to a dose- and time dependent inhibition of cell survival, as determined using trypan blue exclusion. After 48 hours, in the presence of 10-6 mol/L melarsoprol , percentage of trypan blue negative cells were 15 ± 7.2, 56 ± 11, 62 ± 5 8, and 81 ± 6.8% in NCI, OPM2, U266 and LP1 cells, respectively. Cell death was mainly due to apoptosis, as shown by the characteristic morphological changes in nuclei as well as by the TUNEL method.
# [6] = test system: NCI; experiment: Cell survival by trypan blue exclusion; format: cell-based, human; settings: after 48 hours, 10-6 mol/L melarsoprol
# Procedure: as §6, §7, §8
# [7] = test system: LP1 cells; experiment: Cell survival by trypan blue exclusion; format: cell-based, human; settings: LP1, after 48 hours, 10-6 mol/L melarsoprol
# Procedure: as §6, §7, §8
# [8] = test system: U266 cells; experiment: FACS analysis after annexin-V and propidium iodide staining; format: cell-based, human; settings: 10^-6 mol/L, 18-hour culture
# Procedure: as §4
# (§9) FACS analysis of NCI and U266 cells after staining with fluorescein-labelled annexin-V and propidium iodide was performed to detect the translocation of phosphatidylserine from the inner part of plasma membrane to the outer layer which accurs in the early stages of apoptosis. Before staining, cells were cultivated with medium alone) melarsoprol (10^-6 mol/L) or dexamethasone (Dex, 10^-6 mol/L) over a time period of 48 hours. […] During the same time; the number of double positive necrotic cells increased and, at 18 hours, only very few double-negative living cells were detectable. Apoptosis was moderate in cells cultured with Dex and in control culture. Annexin-positive, PI-negative apoptotic U266 cells were also observed in the presence of melarsoprol (18% of residual cells after a 18-hour culture).
# [9] = test system: NCI cells; experiment: as above; format: cell-based, human; settings: 10^-6 mol/L
# Procedure: as §4, §9
# [10] = test system: secreting multiple myeloma; experiment: Bi-central, open, non-comparative study in patients with secreting multiple myeloma; format: in vivo; settings: IV 1mg/kg first day, then 2mg/kg daily, not longer than 56 days
# Procedure: A bi-central, open, non-comparative study of melarsoprol in patients suffering from secreting multiple myeloma was carried out.
# Patients with secreting multiple myeloma included in the study had been pretreated with and were unresponsive to a minimum of 3 VAD (vincristine-adriamycine-dexamethasone) or VAMP (vincristine-adriamycine-methylprednisolone) chemotherapy regimens.
# Patients are treated daily with co-administration of anti-convulsive and B1 vitamin for 56 days if allowed by toxicity.
# At the first day, the IV solution of melarsoprol (1mg/kg) is administered in 3 intravenous injections.
# The IV solution of melarsoprol (2mg/kg) is then administered daily and for a time period not longer than 56 days in the same manner. […]
# [11] = test system: T, myeloid and epithelial cell lines; experiment: Comparative example: growth of other hematopoietic cell types; format: cell-based
# Procedure: as §6, §7
# In addition to plasma cell, other hematopoietic cell types were also studied. The inhibition of growth was marginal in T, myeloid and epithelial cell lines.
# [12] = test system: human myeloma cells; experiment: SCID mice transplanted with human myeloma cells: efficacy; format: in vivo; settings: 30µg/g 5 days a week IP, 30 to 40 days
# Procedure: The following studies of melarsoprol conducted in SCID mice transplanted with human myeloma cells confirm in vivo the in vitro effects of the arsenical compound.
# as §3
# Mice injected with the cells from 3 different patients developed the human tumor and were treated with melarsoprol during 30 to 40 days.
# [13] = test system: NCI cells; experiment: DNA fragmentation by agarose gel electrophoresis of genomic DNA; format: cell-based, human; settings: NCI cells treated with 10^-6 mol/L
# [14] = test system: myeloma cells; experiment: Growth and survival of myeloma cells (summary statement); format: cell-based, human
# Excerpt: According to the present invention, melarsoprol reduces the growth and survival of myeloma cells by triggering programmed cell death.
# This supports the clinical efficacy of the melarsoprol in patients with multiple myeloma. Indeed, melarsoprol is active at concentrations ranging from 10^-6 to 10^-8 mol/L, which correspond to the in vivo pharmacological concentrations of the drugs.
# [15] = test system: NCI cells; experiment: Growth inhibition of plasma cell line (cell count and thymidine incorporation); format: cell-based, human
# Procedure: as §6, §7
# (§10) The growth of NCI, U266, OPM2 and LP1 plasma cell lines in medium alone or in the presence of melarsoprol (10^-5 to 10^-8 mol/L) was assessed by cell count and thymidine incorporation.
# [16] = test system: OPM2 cells; experiment: as above; format: cell-based, human
# Procedure: as §6, §7, §10
# [17] = test system: LP1 cells; experiment: as above; format: cell-based, human
# Procedure: as §6, §7, §10
# [18] = test system: U266; experiment: as above; format: cell-based, human; settings: U266 cells
# Procedure: as §6, §7, §10
# [19] = test system: plasma-cell enriched preparations of myeloma patients; experiment: Viability (trypan blue exclusion) of fresh myeloma cells; format: cell-based, human; settings: 48 hours, n=4 (40 to 77.5%); 10.5 ± 14.7% without the drug
# Excerpt: as §1, §2
# [20] = test system: Mononuclear cells purified from peripheral blood of normal donors; experiment: Pokeweed mitogen (PWM)-induced plasma cell differentiation of normal lymphocytes; format: cell-based, human; settings: 10^-6 mol/L and 5 x10^-7 mol/L
# Procedure: Mononuclear blood cells of 3 normal donors were cultured in the presence of PWM (from Life Technology, Cergy Pontoise, diluted at 1/100) and melarsoprol (5 x 10^-7 or 10^-6 mol/L). Plasma cells were numerated at day 7 after immunofluorescence staining with fluorescein-conjugated antibodies directed against human Ig chains, IgM concentrations in supernatants were also measured at day 5, by ELISA, as previously described (Grillot-Courvalin C et al, Scand. J. Immunol. 23:679, 1986).
# Mononuclear cells purified from peripheral blood of normal donors were incubated with pokeweed mitogen in the presence of two different concentrations (10^-6 mol/L and 5 x10^-7 mol/L) of the organic or of the inorganic arsenical.
# [21] = test system: leukemia; settings: IV daily for 3 days, repeated weekly for 3 weeks, 1 to 3,6mg/kg; cited from earlier work
# [22] = 2 days of culture, 10^-6 mol/L, representative bone marrow sample
compound,measurement,setting,value
"Nc1nc(N)nc(Nc2ccc([As]3SCC(CO)S3)cc2)n1 (stereo not drawn) [melarsoprol, 2-p-[(4,6-diamino-s-triazin-2-yl)amino]phenyl-4-hydroxymethyl-1,3,2-dithiarsoline]",pIC50,[1],~7.00
same,toxic lesions in studied organs,[2],no evidence of toxic lesions
same,plasma cells (CD38^higt +) expressing annexin V,[3]; [22],12%
same,percent CD38-high plasma cells among viable cells at 1 µM,"[3]; Homo sapiens, 120 h, read-out: CD38^higt positive cells among viable cells (propidium iodide negative)",7.8%
same,"myeloid cells (CD38^low, CD15 +) positive for the apoptosis marker",[4]; [22],less than 1%
same,CD15+ myelo-monocytic cell percentages versus controls,"[4]; day 5, 10^-6 mol/L",similar
same,percentage of trypan blue negative cells,[5],56 ± 11%
same,percentage of trypan blue negative cells,[6],15 ± 7.2%
same,percentage of trypan blue negative cells,[7],81 ± 6.8%
same,"Annexin-positive, PI-negative apoptotic U266 cells",[8],18 % of residual cells
same,double-negative living cells,[9]; at 18 hours,only very few
same,"apoptosis (annexin-positive, PI-negative apoptotic cells)",[9]; time period of 48 hours,rapidly induced apoptosis
same,Efficiency for treating multiple myeloma and reduced side-effects,[10],verified
same,inhibition of growth,[11],marginal
same,remissions,[12]; all evaluable experiment,remissions have been achieved
same,level of the HuMIg in mouse serum,[12]; undetectable in some animals,dramatic decrease
same,DNA fragmentation,[13],typical DNA ladders
same,active concentrations,[14],10^-6 to 10^-8 mol/L
same,time-dependent inhibition of growth,[15],marked time-dependent inhibition of growth
same,IC50,"[15]; Homo sapiens, 72 hours, cell number and thymidine incorporation, read-out: 50% growth inhibitory concentration (IC50) (converted)",0.3 µM
same,time-dependent inhibition of growth,[16],marked time-dependent inhibition of growth
same,pIC50,"[16]; Homo sapiens, OPM-2, growth inhibition",~7.00
same,pIC50,"[17]; Homo sapiens, LP-1, LP1 cells, growth inhibition",~6.00
same,time-dependent inhibition of growth,[17]; LPI cells,significant but less important inhibition of growth
same,pIC50,"[18]; Homo sapiens, U-266, growth inhibition",~6.00
same,time-dependent inhibition of growth,[18],significant but less important inhibition of growth
same,mean decline in cell viability,[19],52.5 ± 17.3%
same,plasma cell differentiation induced by the mitogen,[20],only slightly inhibited
same,CNS toxicity,[21],excessive CNS (central nervous system) toxicity
same,anti-leukemic activity,[21],no major anti-leukemic activity
